Activity and Emax data for three molecules are collected here from ChEMBL document CHEMBL5550214, “Expanding Structure-Activity Relationships of Human Urotensin II Peptide Analogues: A Proposed Key Role of the N-Terminal Region for Novel Urotensin II Receptor Modulators” (J Med Chem, 2024).

Calls of active or inactive are those of the source. The rule behind the calls is not given here.

For experiment [1], the target named is T1, Urotensin-2 receptor (Homo sapiens) (UniProt Q9UKP6).
T1 sequence (whole entry): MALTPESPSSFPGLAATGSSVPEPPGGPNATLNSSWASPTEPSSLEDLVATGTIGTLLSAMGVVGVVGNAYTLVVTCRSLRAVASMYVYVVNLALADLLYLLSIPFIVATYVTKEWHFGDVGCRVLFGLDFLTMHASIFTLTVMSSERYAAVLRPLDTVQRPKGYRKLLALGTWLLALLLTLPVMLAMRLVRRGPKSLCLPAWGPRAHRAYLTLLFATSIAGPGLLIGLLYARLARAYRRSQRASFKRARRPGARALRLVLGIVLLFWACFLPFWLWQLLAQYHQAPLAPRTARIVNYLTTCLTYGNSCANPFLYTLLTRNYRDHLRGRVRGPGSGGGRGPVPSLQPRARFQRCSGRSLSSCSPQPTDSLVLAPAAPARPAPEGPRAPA
The experiment in a line: Modulation of human UTR stably expressed in HEK293 cells assessed as increase in Ca2+ level at 0.1 to 100 nM by Fura 2-AM dye based calcium mobilization assay. In kind it is functional, cell-based. The note with it: dose 0.1-100 nM.

Experiment [2] relates to Aortic ring. The experiment in a line: Induction of contraction in Albino Wistar rat aortic ring assessed as Emax of hU-II at 10 uM incubated for 30 mins in presence of hU-II (reference value: 251.4 +/- 15.43 dyne/mg). The note with it: 0.5 h. In kind it is functional, Aorta.
Experiment [3] has as its system Aortic ring. The experiment in a line: Induction of contraction in Albino Wistar rat aortic ring assessed as Emax of [Ala1]U-II at 0.1 uM incubated for 30 mins in presence of [Ala1]U-II (reference value: 391.6 +/- 38.83 dyne/mg). The experiment is classed as functional, Aorta. The note with it: 0.5 h.
The test system of experiment [4] is Aortic ring. The experiment in a line: Induction of contraction in Albino Wistar rat aortic ring assessed as Emax of U-II(4-11) at 1 uM incubated for 30 mins in presence of U-II(4-11) (reference value: 242.6 +/- 20.63 dyne/mg). The note with it: 0.5 h. The experiment is classed as functional, Aorta.
The test system of experiment [5] is Aortic ring. The experiment in a line: Induction of contraction in Albino Wistar rat aortic ring assessed as Emax of U-II(4-11) at 10 uM incubated for 30 mins in presence of U-II(4-11) (reference value: 159.8 +/- 7.39 dyne/mg). The note with it: 0.5 h. In kind it is functional, Aorta.
In experiment [6] the test system is Aortic ring. The experiment in a line: Induction of contraction in Albino Wistar rat aortic ring assessed as Emax of hU-II at 0.1 uM incubated for 30 mins in presence of hU-II (reference value: 238.4 +/- 9.53 dyne/mg). In kind it is functional, Aorta. The note with it: 0.5 h.
Experiment [7] has as its system Aortic ring. The experiment in a line: Induction of contraction in Albino Wistar rat aortic ring at 1 to 30 nM. In kind it is functional, tissue-based. The note with it: Aorta, dose 1-30 nM.
Experiment [8] deals with Aortic ring. Nature of the experiment: Induction of contraction in Albino Wistar rat aortic ring assessed as Emax of U-II(4-11) at 0.1 uM incubated for 30 mins in presence of U-II(4-11) (reference value: 152.4 +/- 5.1 dyne/mg). In kind it is functional, Aorta. The note with it: 0.5 h.
Experiment [9] concerns Aortic ring. Nature of the experiment: Induction of contraction in Albino Wistar rat aortic ring assessed as Emax of [Ala1]U-II at 10 uM incubated for 30 mins in presence of [Ala1]U-II (reference value: 220.3 +/- 17.48 dyne/mg). In kind it is functional, Aorta. The settings on record: 0.5 h.
Experiment [10] relates to Aortic ring. The experiment in a line: Induction of contraction in Albino Wistar rat aortic ring assessed as Emax of hU-II at 1 uM incubated for 30 mins in presence of hU-II (reference value: 279.9 +/- 11.02 dyne/mg). The note with it: 0.5 h. The experiment is classed as functional, Aorta.
In experiment [11] the test system is Aortic ring. Nature of the experiment: Induction of contraction in Albino Wistar rat aortic ring assessed as Emax of [Ala1]U-II at 1 uM incubated for 30 mins in presence of [Ala1]U-II (reference value: 323 +/- 30.45 dyne/mg). In kind it is functional, Aorta. The note with it: 0.5 h.
Experiment [12] deals with Aortic ring. The experiment in a line: Induction of contraction in Albino Wistar rat aortic ring assessed as Emax of U-II(4-11) at 1 uM incubated for 30 mins in presence of U-II(4-11) (reference value: 159.8 +/- 7.3 dyne/mg). In kind it is functional, Aorta. The note with it: 0.5 h.
Experiment [13] relates to Aortic ring. Nature of the experiment: Induction of contraction in Albino Wistar rat aortic ring assessed as Emax of [Ala1]U-II at 0.1 uM incubated for 30 mins in presence of [Ala1]U-II (reference value: 323 +/- 30.45 dyne/mg). The note with it: 0.5 h. The experiment is classed as functional, Aorta.
Experiment [14] has as its system Aortic ring. The experiment in a line: Induction of contraction in Albino Wistar rat aortic ring assessed as Emax of [Ala1]U-II at 10 uM incubated for 30 mins in presence of [Ala1]U-II (reference value: 308.1 +/- 21.4 dyne/mg). The experiment is classed as functional, Aorta. The note with it: 0.5 h.
Experiment [15] concerns Aortic ring. Nature of the experiment: Induction of contraction in Albino Wistar rat aortic ring assessed as Emax of hU-II at 10 uM incubated for 30 mins in presence of hU-II (reference value: 224.8 +/- 11.71 dyne/mg). The experiment is classed as functional, Aorta. The note with it: 0.5 h.
Experiment [16] deals with Aortic ring. Nature of the experiment: Induction of contraction in Albino Wistar rat aortic ring assessed as Emax of hU-II at 1 uM incubated for 30 mins in presence of hU-II (reference value: 251.4 +/- 15.43 dyne/mg). The settings on record: 0.5 h. The experiment is classed as functional, Aorta.
Experiment [17] relates to Aortic ring. Nature of the experiment: Induction of contraction in Albino Wistar rat aortic ring assessed as Emax of U-II(4-11) at 0.1 uM incubated for 30 mins in presence of U-II(4-11) (reference value: 159.8 +/- 7.39 dyne/mg). In kind it is functional, Aorta. The settings on record: 0.5 h.
For experiment [18], the system named is Aortic ring. Nature of the experiment: Induction of contraction in Albino Wistar rat aortic ring assessed as Emax of U-II(4-11) at 10 uM incubated for 30 mins in presence of U-II(4-11) (reference value: 152.4 +/- 5.1 dyne/mg). The experiment is classed as functional, Aorta. The note with it: 0.5 h.
Experiment [19] relates to Aortic ring. Nature of the experiment: Induction of contraction in Albino Wistar rat aortic ring assessed as Emax of hU-II at 0.1 uM incubated for 30 mins in presence of hU-II (reference value: 279.9 +/- 11.02 dyne/mg). The experiment is classed as functional, Aorta. The settings on record: 0.5 h.
In experiment [20] the test system is Aortic ring. The experiment in a line: Induction of contraction in Albino Wistar rat aortic ring assessed as Emax of [Ala1]U-II at 1 uM incubated for 30 mins in presence of [Ala1]U-II (reference value: 220.3 +/- 17.48 dyne/mg). In kind it is functional, Aorta. The note with it: 0.5 h.
Experiment [21] deals with Aortic ring. Nature of the experiment: Induction of contraction in Albino Wistar rat aortic ring assessed as Emax of hU-II at 10 uM incubated for 30 mins in presence of hU-II (reference value: 238.4 +/- 9.53 dyne/mg). In kind it is functional, Aorta. The note with it: 0.5 h.
Experiment [22] concerns Aortic ring. Nature of the experiment: Induction of contraction in Albino Wistar rat aortic ring assessed as Emax of hU-II at 0.1 uM incubated for 30 mins in presence of hU-II (reference value: 224.8 +/- 11.71 dyne/mg). The note with it: 0.5 h. In kind it is functional, Aorta.
Experiment [23] deals with Aortic ring. The experiment in a line: Induction of contraction in Albino Wistar rat aortic ring assessed as Emax of U-II(4-11) at 0.1 uM incubated for 30 mins in presence of U-II(4-11) (reference value: 242.6 +/- 20.63 dyne/mg). In kind it is functional, Aorta. The settings on record: 0.5 h.
Experiment [24] relates to Aortic ring. The experiment in a line: Induction of contraction in Albino Wistar rat aortic ring assessed as Emax of U-II(4-11) at 1 uM incubated for 30 mins in presence of U-II(4-11) (reference value: 159.8 +/- 7.39 dyne/mg). The settings on record: 0.5 h. The experiment is classed as functional, Aorta.
The subject of experiment [25] is Aortic ring. Nature of the experiment: Induction of contraction in Albino Wistar rat aortic ring assessed as Emax of [Ala1]U-II at 0.1 uM incubated for 30 mins in presence of [Ala1]U-II (reference value: 220.3 +/- 17.48 dyne/mg). In kind it is functional, Aorta. The settings on record: 0.5 h.
In experiment [26] the test system is Aortic ring. The experiment in a line: Induction of contraction in Albino Wistar rat aortic ring assessed as Emax of [Ala1]U-II at 10 uM incubated for 30 mins in presence of [Ala1]U-II (reference value: 153.3 +/- 10.75 dyne/mg). In kind it is functional, Aorta. The note with it: 0.5 h.
Experiment [27] relates to Aortic ring. The experiment in a line: Induction of contraction in Albino Wistar rat aortic ring assessed as Emax of U-II(4-11) at 10 uM incubated for 30 mins in presence of U-II(4-11) (reference value: 159.8 +/- 7.3 dyne/mg). The experiment is classed as functional, Aorta. The note with it: 0.5 h.
Experiment [28] relates to Aortic ring. Nature of the experiment: Induction of contraction in Albino Wistar rat aortic ring assessed as Emax of [Ala1]U-II at 1 uM incubated for 30 mins in presence of [Ala1]U-II (reference value: 308.1 +/- 21.4 dyne/mg). In kind it is functional, Aorta. The settings on record: 0.5 h.
For experiment [29], the system named is Aortic ring. The experiment in a line: Induction of contraction in Albino Wistar rat aortic ring assessed as Emax of hU-II at 1 uM incubated for 30 mins in presence of hU-II (reference value: 214.5 +/- 10.51 dyne/mg). The experiment is classed as functional, Aorta. The note with it: 0.5 h.

As for `CC(C)[C@H](NC(=O)[C@@H]1CSSC(C)(C)[C@H](NC(=O)[C@H](CC(=O)O)NC(=O)[C@@H]2CCCN2C(=O)[C@@H](NC(=O)[C@@H](N)CCO)[C@@H](C)O)C(=O)N[C@@H](Cc2ccccc2)C(=O)N[C@H](Cc2c[nH]c3ccccc23)C(=O)N[C@@H](CCCN)C(=O)N[C@@H](Cc2ccc(O)cc2)C(=O)N1)C(=O)O`, the outcome (in experiment [1]; with Aortic ring [7]) was inactive. Further, the Emax was found to be 181.9 dyn/mg with Aortic ring [2]; 251.5 dyn/mg with Aortic ring [3]; 93.38 dyn/mg in the experiment with Aortic ring [4]; 111.3 dyn/mg in the experiment with Aortic ring [5]; 179.2 dyn/mg in the experiment with Aortic ring [6]; 120.9 dyn/mg in the experiment with Aortic ring [8]. The Emax in the experiment on Aortic ring [9] is recorded as 148.9 dyn/mg; with Aortic ring [10], 188.6 dyn/mg; in the experiment with Aortic ring [11] it was 119.1 dyn/mg.

For the molecule `CC(C)[C@H](NC(=O)[C@@H]1CSSC(C)(C)[C@H](NC(=O)[C@H](CC(=O)O)NC(=O)[C@@H]2CCCN2C(=O)[C@@H](NC(=O)[C@@H](N)CCN)[C@@H](C)O)C(=O)N[C@@H](Cc2ccccc2)C(=O)N[C@H](Cc2c[nH]c3ccccc23)C(=O)N[C@@H](CCCN)C(=O)N[C@@H](Cc2ccc(O)cc2)C(=O)N1)C(=O)O`, the outcome (in [1]; in the experiment on Aortic ring [7]) was inactive. In addition, the Emax was determined as 166.4 dyn/mg in the experiment on Aortic ring [12]; 38.23 dyn/mg in the experiment on Aortic ring [13]; 141.2 dyn/mg in the experiment with Aortic ring [14]; 208.6 dyn/mg in the experiment with Aortic ring [15]; 397 dyn/mg with Aortic ring [16]; 98.9 dyn/mg with Aortic ring [17]. For the same molecule, the Emax was determined as 119.5 dyn/mg with Aortic ring [18], 164 dyn/mg in the experiment on Aortic ring [19] and 99.6 dyn/mg with Aortic ring [20].

With `CC(C)[C@H](NC(=O)[C@@H]1CSSC(C)(C)[C@H](NC(=O)[C@H](CC(=O)O)NC(=O)[C@@H]2CCCN2C(=O)[C@@H](NC(=O)[C@H](C)N)[C@@H](C)O)C(=O)N[C@@H](Cc2ccccc2)C(=O)N[C@H](Cc2c[nH]c3ccccc23)C(=O)N[C@@H](CCCN)C(=O)N[C@@H](Cc2ccc(O)cc2)C(=O)N1)C(=O)O`, the result in experiment [1] (filed as modulator) was Active. Besides, the Emax in the experiment with Aortic ring [21] was 320.8 dyn/mg; in the experiment on Aortic ring [22] it was 264.3 dyn/mg; in the experiment with Aortic ring [23] it was 263 dyn/mg; with Aortic ring [24] it was 248.2 dyn/mg; in the experiment with Aortic ring [25] it was 373.5 dyn/mg; with Aortic ring [26], 285 dyn/mg. Also, the Emax with Aortic ring [27] amounted to 541.8 dyn/mg; with Aortic ring [28], 121.9 dyn/mg; with Aortic ring [29], 315.6 dyn/mg. For the same molecule, in the experiment with Aortic ring [7], the result was inactive.
